Results on three compounds are retold here after publication PMC10882265 (RSC Advances, 2024).

Experiment [1] deals with human recombinant DPP-4 (Homo sapiens, UniProt P27487). Put plainly: biochemical. The note with it: Inhibition of DPP-4 IC50, mean of three experiments.
The subject of experiment [2] is murine model of T2DM. The following applies: oral, high fat diet + streptozotocin T2DM ref 35; cited from earlier work.

Where “and” joins values, the source holds several entries; their conditions need not be identical. Equal entries are not always repeated.

human recombinant DPP-4, sequence (P27487 whole entry): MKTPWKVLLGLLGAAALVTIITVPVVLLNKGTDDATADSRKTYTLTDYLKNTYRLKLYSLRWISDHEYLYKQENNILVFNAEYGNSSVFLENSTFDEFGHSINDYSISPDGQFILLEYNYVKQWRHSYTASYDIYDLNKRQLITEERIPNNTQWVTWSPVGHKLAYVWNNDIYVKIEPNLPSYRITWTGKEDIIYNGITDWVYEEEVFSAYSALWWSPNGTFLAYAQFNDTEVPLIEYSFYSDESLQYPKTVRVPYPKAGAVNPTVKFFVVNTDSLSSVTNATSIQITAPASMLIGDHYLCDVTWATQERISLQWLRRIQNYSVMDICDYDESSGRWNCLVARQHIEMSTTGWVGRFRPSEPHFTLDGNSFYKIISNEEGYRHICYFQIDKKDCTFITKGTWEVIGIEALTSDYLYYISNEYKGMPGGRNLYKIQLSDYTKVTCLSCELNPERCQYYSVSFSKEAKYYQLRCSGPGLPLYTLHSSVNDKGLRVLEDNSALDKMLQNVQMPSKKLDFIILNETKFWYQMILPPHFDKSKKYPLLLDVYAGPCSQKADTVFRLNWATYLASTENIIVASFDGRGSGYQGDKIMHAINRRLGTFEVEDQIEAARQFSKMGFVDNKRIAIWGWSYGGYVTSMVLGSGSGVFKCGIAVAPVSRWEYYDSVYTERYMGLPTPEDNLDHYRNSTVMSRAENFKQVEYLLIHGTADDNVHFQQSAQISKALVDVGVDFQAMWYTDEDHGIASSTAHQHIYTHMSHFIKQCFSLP

For `N[C@H](CC(=O)N/N=C/c1ccc(F)c(F)c1)Cc1cc(F)c(F)cc1F` [LASSBio-2130 (6-S), (S,E)-3-amino-N'-(3,4-difluorobenzylidene)-4-(2,4,5-trifluorophenyl)butanehydrazide], the IC50 (usually the point on the concentration scale where inhibition reaches its midpoint) in experiment [1] is 44700 nM.

For the compound `NC(CC(=O)NNCc1ccc(F)c(F)c1)Cc1cc(F)c(F)cc1F` (stereo not shown) [LASSBio-2127 (13), 3-amino-N'-(3,4-difluorobenzyl)-4-(2,4,5-trifluorophenyl)butanehydrazide], the 50% inhibitory concentration (IC50) in experiment [1] was 2900 nM and 2930 nM. As to `N[C@@H](CC(=O)N1CCn2c(nnc2C(F)(F)F)C1)Cc1cc(F)c(F)cc1F` [Sitagliptin (1), sitagliptin], in experiment [2], the antihyperglycemic effect result was “showed antihyperglycemic effects”; the “effect on cardiac and renal dysfunction” value was “improved cardiac and renal dysfunction”.
